Where two headings read alike, the source gives them in different places.
Legend:
[1] = test system: AMPK; assay: AICAR-induced activation of AMPK in NRVMs; format: cell-based, rat; conditions: for activity of AMPK following AICAR, as determined by ACC phosphorylation: NRVMs pre-treated 4h, then AICAR 1 mM 1h
[2] = test system: NRVMs; assay: Rescue of sunitinib injury in NRVMs by AMPK activators; conditions: cells pre-treated with AICAR, then exposed to sunitinib
[3] = test system: Neonatal rat ventricular myocytes (NRVMs); assay: ATP content of cultured cardiomyocytes; format: cell-based
[4] = test system: Neonatal rat ventricular myocytes (NRVMs); assay: TUNEL staining of cultured cardiomyocytes; format: cell-based
[5] = test system: NRVMs; conditions: cited from earlier work
[6] = biological target: CAMKK1 (Homo sapiens, UniProt Q8N5S9); assay: Recombinant biochemical kinase assay, sunitinib vs CAMKK1
[7] = test system: C57Bl/6 mice; assay: Echocardiographic indices of sunitinib-treated mice; format: in vivo, mouse; conditions: 25 mg/kg/d in chow, 5 weeks, mean ± SD
[8] = test system: C57Bl/6 mice; assay: Cardiomyocyte cross-sectional area on H&E-stained heart sections of treated mice; format: in vivo, mouse; conditions: 25 mg/kg/d, 5 weeks, p < 0.01 vs. vehicle, n = 4
[9] = test system: C57Bl/6 mice; assay: Myocardial capillary density; format: in vivo, mouse; conditions: 25 mg/kg/d, 5 weeks, isolectin B4, n = 3
[10] = test system: AMPK; assay: Phospho-ACC immunoblot of heart lysates of treated mice; format: in vivo, mouse; conditions: 25 mg/kg/d, 5 wks, p < 0.05 vs. control, n = 4 hearts
[11] = test system: Neonatal rat ventricular myocytes (NRVMs); assay: Mitochondrial membrane potential; format: cell-based; conditions: 1 μM sunitinib, 12h
[12] = test system: AMPK; assay: Phospho-AMPK; format: cell-based, rat; conditions: NRVMs, sunitinib 1 μM; p < 0.01 vs. control, n = 4
[13] = test system: AMPK; assay: Phospho-ACC immunoblot in NRVMs; format: cell-based, rat; conditions: sunitinib 1 μM, p < 0.01, n = 4
[14] = test system: mTORC1; assay: Phospho-eEF2 immunoblot in NRVMs; format: cell-based, rat; conditions: sunitinib 1 μM, p < 0.01, n = 4
[15] = test system: RET; conditions: read-out: IC50 vs RET; known sunitinib target; cited from earlier work
[16] = test system: patients; conditions: cited from earlier work
[17] = test system: mitochondria; conditions: cited from earlier work
[18] = ref http://www.pfizer.com/files/products/uspi_sutent.pdf; cited from earlier work

CAMKK1, sequence (Q8N5S9 whole entry): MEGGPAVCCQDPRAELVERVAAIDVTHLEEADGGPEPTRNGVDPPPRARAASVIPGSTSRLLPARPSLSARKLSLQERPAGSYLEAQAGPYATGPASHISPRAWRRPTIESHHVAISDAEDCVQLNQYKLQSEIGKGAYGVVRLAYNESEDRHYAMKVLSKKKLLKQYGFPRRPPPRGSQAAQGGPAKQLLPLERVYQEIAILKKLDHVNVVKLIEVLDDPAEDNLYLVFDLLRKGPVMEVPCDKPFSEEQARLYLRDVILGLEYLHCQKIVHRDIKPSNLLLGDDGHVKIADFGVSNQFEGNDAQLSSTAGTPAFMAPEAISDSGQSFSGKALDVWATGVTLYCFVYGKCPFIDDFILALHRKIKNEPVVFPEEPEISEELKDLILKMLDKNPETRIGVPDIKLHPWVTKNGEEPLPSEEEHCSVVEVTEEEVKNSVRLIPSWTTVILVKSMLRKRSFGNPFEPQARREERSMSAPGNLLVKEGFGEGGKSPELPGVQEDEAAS

SMILES: NC(=O)c1ncn([C@@H]2O[C@H](CO)[C@@H](O)[C@H]2O)c1N [AICAR]
- AMPK signaling (phospho-ACC) in the setting of sunitinib ([1]; AICAR 1 mM 1h after sunitinib pre-treatment 4h): failed to increase AMPK signaling
- rescue of sunitinib toxicity by pre-treatment with the AMPK activator [2]: failed to rescue

SMILES: c1cc(-c2cnn3cc(-c4ccc(OCCN5CCCCC5)cc4)cnc23)ccn1 [Compound C]
- [ATP] in cardiomyocytes [3]: reduction in [ATP]
- activity of AMPK following AICAR, as determined by ACC phosphorylation [1]: Inhibition
- cardiomyocyte apoptosis (TUNEL) [4]: induced apoptosis

SMILES: CN(C)C(=N)N=C(N)N [metformin]
- reduction of sunitinib injury in NRVMs [5]: failed to reduce sunitinib injury

SMILES: CCN(CC)CCNC(=O)c1c(C)[nH]c(/C=C2\C(=O)Nc3ccc(F)cc32)c1C [sunitinib]
- IC50 ([6]; IC50 vs CAMKK1 (range)): 4.5 to 6 µM
- IC50 ([6]; Mean IC50, recombinant biochemical kinase assays, two to seven sets of assays): 5.25 µM
- EF (ejection fraction) [7]: 52.5 ± 6.85%
- FS (fractional shortening) [7]: 31.3 ± 5.07%
- LVEDD (left ventricular end-diastolic dimension) [7]: 3.51 ± 0.18 mm
- LVPW (left ventricular posterior wall thickness) [7]: 0.86 ± 0.06 mm
- LVW/BW (left ventricular mass normalized to body weight) [7]: 4.49 ± 0.28 mg/g
- LVESD (left ventricular end-systolic dimension) ([7]; P < 0.05 versus vehicle): 2.41 ± 0.27 mm
- cardiomyocyte size (cross-sectional area) on H & E-stained heart sections [8]: cardiomyocyte hypertrophy
- myocardial capillary density [9]: does not alter
- phosphorylation of ACC2 in the heart in vivo [10]: significantly reduced
- mitochondrial membrane potential (Δψm) [11]: loss of Δψm
- [ATP] in cardiomyocytes ([3]; 8h treatment, p < 0.05 vs. control): significantly reduced
- phosphorylation of AMPK at the activating site (T172) [12]: modest but consistent increase
- phosphorylation of ACC1/2 [13]: significantly reduced
- activity of AMPK following AICAR, as determined by ACC phosphorylation [1]: significantly reduced
- phosphorylation of eEF2 [14]: marked increase
- cardiomyocyte apoptosis (TUNEL) ([4]; 28 hrs treatment, p < 0.05 vs. control): induce cardiomyocyte apoptosis
- patients developing congestive heart failure (CHF) [16]: 8–15%
- direct toxicity to mitochondria [17]: not directly toxic to mitochondria
- volume of distribution [18]: 2230 L

Source: article PMC2849142 (Clinical and translational science, 2009)
